pIC50, pKi: −log10 of the molar value. The source made the active and inactive calls. No cut-off for these calls is given here.
How the values were obtained:
[1] = target: Vascular endothelial growth factor receptor 1 (Homo sapiens, UniProt P17948); test: Inhibition of VEGFR1 assessed as inhibition of phosphorylation in presence of 2 uM ATP by HTRF assay; assay type: functional
[2] = target: T1, Vascular endothelial growth factor receptor 2 (Homo sapiens, UniProt P35968); test: Inhibition of VEGFR2 assessed as inhibition of phosphorylation in presence of 2 uM ATP by HTRF assay; assay type: functional
[3] = target: T1, Vascular endothelial growth factor receptor 2; test: Inhibition of VEGFR2 assessed as inhibition of phosphorylation in human 293 cells by cell-based ELISA; assay type: functional, HEK293
[4] = target: T1, Vascular endothelial growth factor receptor 2; test: Displacement of [32P]ATP from human VEGFR2 after 45 mins
[5] = target: Insulin-like growth factor 1 receptor (Homo sapiens) (UniProt P08069); test: Inhibition of IGF1R at 10 uM; parameters: scale not given: the % may be the effect or the level left
Homo sapiens [6] = species: Homo sapiens; test: Inhibition of InR at 10 uM; parameters: scale not given: the % may be the effect or the level left
[7] = target: Fibroblast growth factor receptor 1 (Homo sapiens) (UniProt P11362); test: Inhibition of FGFR1 at 10 uM; parameters: scale not given: the % may be the effect or the level left
[8] = target: Receptor-type tyrosine-protein kinase FLT3 (Homo sapiens) (UniProt P36888); test: Inhibition of Flt3 at 10 uM; parameters: scale not given: the % may be the effect or the level left
[9] = target: Vascular endothelial growth factor receptor 3 (Homo sapiens) (UniProt P35916); test: Inhibition of Flt4 at 10 uM; parameters: scale not given: the % may be the effect or the level left
[10] = target: Epidermal growth factor receptor (Homo sapiens) (UniProt P00533); test: Inhibition of ErbB1 at 10 uM; parameters: scale not given: the % may be the effect or the level left
[11] = target: Receptor tyrosine-protein kinase erbB-2 (Homo sapiens) (UniProt P04626); test: Inhibition of ErbB2/Her2 at 10 uM; parameters: scale not given: the % may be the effect or the level left
[12] = target: Hepatocyte growth factor receptor (Homo sapiens) (UniProt P08581); test: Inhibition of cMet at 10 uM; parameters: scale not given: the % may be the effect or the level left
Homo sapiens [13] = species: Homo sapiens; test: Inhibition of PKA at 10 uM; parameters: scale not given: the % may be the effect or the level left
[14] = target: Glycogen synthase kinase-3 beta (Homo sapiens) (UniProt P49841); test: Inhibition of GSK3-beta at 10 uM; parameters: scale not given: the % may be the effect or the level left
[15] = target: RAC-alpha serine/threonine-protein kinase (Homo sapiens) (UniProt P31749); test: Inhibition of PKB/Akt at 10 uM; parameters: scale not given: the % may be the effect or the level left
Homo sapiens [16] = species: Homo sapiens; test: Inhibition of bcr-Abl at 10 uM; parameters: scale not given: the % may be the effect or the level left
Homo sapiens [17] = species: Homo sapiens; test: Inhibition of Cdk1 at 10 uM; parameters: scale not given: the % may be the effect or the level left
[18] = target: RAF proto-oncogene serine/threonine-protein kinase (Homo sapiens) (UniProt P04049); test: Inhibition of Raf1 at 10 uM; parameters: scale not given: the % may be the effect or the level left
[19] = target: Cyclin-dependent kinase 2 (Homo sapiens) (UniProt P24941); test: Inhibition of Cdk2 at 10 uM; parameters: scale not given: the % may be the effect or the level left
[20] = Passive diffusion assessed as intrinsic permeability across Caco-2 cell membrane; assay type: ADME, cell-based; conditions: human, read-out: permeability (converted)
Caco-2 = test: Passive diffusion assessed as absorption potential across Caco-2 cell membrane; assay type: ADME, cell-based; conditions: human
HEK293 = test: Cytotoxicity against HEK293 cells after 24 hrs; assay type: functional, cell-based; conditions: Homo sapiens
A-431 = test: Cytotoxicity against human A431 cells after 24 hrs; assay type: functional; conditions: A-431, 24 h
DLD-1 = test: Cytotoxicity against human DLD1 cells after 24 hrs; assay type: functional; conditions: DLD-1, 24 h
DU-145 = test: Cytotoxicity against human DU145 cells after 24 hrs; assay type: functional; conditions: DU-145, 24 h

Glycogen synthase kinase-3 beta (Homo sapiens), sequence (P49841 whole entry, looked up): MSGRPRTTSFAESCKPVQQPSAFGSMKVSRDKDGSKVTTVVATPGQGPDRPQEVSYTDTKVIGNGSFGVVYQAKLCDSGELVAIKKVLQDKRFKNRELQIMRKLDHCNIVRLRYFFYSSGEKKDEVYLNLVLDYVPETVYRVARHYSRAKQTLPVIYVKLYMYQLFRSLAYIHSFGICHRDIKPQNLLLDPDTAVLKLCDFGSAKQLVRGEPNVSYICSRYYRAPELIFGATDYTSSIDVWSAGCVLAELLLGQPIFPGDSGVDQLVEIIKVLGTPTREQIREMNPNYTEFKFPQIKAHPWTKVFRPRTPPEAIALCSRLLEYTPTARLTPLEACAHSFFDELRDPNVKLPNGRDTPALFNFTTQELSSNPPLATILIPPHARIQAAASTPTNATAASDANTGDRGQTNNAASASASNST
Receptor-type tyrosine-protein kinase FLT3 (Homo sapiens), sequence (P36888 whole entry): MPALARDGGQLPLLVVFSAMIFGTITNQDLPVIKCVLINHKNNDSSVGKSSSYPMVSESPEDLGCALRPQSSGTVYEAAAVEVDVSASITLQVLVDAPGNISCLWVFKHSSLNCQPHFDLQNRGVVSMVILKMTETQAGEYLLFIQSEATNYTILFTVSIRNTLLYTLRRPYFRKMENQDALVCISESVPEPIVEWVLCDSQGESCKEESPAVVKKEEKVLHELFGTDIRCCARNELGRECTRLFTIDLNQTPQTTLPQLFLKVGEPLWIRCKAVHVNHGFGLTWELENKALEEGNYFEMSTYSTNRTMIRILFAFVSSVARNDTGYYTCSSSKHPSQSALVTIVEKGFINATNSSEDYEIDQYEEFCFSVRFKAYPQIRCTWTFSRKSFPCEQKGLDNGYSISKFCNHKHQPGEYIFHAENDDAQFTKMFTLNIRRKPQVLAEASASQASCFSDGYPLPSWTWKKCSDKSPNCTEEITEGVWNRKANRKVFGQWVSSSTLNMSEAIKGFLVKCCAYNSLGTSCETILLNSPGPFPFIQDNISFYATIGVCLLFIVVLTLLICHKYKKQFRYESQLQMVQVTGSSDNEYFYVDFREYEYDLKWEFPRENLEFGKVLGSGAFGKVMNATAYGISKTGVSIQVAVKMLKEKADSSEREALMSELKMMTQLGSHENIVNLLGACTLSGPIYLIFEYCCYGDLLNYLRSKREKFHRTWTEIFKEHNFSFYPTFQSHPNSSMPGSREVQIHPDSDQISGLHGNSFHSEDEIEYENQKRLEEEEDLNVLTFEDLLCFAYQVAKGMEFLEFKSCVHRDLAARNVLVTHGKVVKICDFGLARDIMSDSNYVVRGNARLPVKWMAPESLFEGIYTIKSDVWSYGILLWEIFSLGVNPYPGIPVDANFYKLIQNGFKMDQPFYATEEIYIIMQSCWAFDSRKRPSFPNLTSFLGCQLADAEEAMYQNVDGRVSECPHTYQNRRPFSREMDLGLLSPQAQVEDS
Insulin-like growth factor 1 receptor (Homo sapiens), sequence (P08069 31-736 limits assumed): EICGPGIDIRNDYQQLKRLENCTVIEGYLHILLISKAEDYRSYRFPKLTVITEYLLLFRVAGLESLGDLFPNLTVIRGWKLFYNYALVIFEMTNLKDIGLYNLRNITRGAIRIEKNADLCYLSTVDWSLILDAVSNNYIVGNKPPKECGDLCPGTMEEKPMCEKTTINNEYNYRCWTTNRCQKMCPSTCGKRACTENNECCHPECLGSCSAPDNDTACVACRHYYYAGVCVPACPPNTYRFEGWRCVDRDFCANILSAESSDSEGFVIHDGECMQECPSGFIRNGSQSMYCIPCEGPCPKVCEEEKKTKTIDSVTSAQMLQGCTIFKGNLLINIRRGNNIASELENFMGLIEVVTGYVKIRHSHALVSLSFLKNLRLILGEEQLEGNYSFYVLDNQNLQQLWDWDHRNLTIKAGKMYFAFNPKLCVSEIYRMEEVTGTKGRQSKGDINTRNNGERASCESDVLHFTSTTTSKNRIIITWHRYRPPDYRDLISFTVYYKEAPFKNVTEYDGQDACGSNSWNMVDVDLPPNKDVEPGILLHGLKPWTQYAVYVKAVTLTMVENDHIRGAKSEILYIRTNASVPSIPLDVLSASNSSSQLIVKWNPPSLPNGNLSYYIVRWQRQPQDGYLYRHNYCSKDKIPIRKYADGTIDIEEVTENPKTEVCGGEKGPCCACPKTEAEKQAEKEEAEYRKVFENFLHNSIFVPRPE
Insulin-like growth factor 1 receptor (Homo sapiens), sequence (P08069 741-1367 limits assumed): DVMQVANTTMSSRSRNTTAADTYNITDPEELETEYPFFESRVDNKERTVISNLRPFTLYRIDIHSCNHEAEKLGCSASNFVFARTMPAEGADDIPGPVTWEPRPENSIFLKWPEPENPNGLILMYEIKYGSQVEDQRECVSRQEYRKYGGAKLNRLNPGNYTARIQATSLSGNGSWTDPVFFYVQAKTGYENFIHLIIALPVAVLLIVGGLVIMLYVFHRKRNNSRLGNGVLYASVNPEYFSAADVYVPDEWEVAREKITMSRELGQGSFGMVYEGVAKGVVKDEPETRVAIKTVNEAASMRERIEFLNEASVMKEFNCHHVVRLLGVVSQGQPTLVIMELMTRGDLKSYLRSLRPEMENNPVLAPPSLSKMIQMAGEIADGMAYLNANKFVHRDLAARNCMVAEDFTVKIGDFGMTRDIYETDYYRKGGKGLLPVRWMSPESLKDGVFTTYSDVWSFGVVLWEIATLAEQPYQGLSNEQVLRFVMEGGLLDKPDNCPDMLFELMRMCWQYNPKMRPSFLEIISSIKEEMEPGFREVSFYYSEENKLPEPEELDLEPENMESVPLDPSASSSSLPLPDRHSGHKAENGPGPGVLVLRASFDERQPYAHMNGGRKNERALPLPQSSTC
Receptor tyrosine-protein kinase erbB-2 (Homo sapiens), sequence (P04626 whole entry): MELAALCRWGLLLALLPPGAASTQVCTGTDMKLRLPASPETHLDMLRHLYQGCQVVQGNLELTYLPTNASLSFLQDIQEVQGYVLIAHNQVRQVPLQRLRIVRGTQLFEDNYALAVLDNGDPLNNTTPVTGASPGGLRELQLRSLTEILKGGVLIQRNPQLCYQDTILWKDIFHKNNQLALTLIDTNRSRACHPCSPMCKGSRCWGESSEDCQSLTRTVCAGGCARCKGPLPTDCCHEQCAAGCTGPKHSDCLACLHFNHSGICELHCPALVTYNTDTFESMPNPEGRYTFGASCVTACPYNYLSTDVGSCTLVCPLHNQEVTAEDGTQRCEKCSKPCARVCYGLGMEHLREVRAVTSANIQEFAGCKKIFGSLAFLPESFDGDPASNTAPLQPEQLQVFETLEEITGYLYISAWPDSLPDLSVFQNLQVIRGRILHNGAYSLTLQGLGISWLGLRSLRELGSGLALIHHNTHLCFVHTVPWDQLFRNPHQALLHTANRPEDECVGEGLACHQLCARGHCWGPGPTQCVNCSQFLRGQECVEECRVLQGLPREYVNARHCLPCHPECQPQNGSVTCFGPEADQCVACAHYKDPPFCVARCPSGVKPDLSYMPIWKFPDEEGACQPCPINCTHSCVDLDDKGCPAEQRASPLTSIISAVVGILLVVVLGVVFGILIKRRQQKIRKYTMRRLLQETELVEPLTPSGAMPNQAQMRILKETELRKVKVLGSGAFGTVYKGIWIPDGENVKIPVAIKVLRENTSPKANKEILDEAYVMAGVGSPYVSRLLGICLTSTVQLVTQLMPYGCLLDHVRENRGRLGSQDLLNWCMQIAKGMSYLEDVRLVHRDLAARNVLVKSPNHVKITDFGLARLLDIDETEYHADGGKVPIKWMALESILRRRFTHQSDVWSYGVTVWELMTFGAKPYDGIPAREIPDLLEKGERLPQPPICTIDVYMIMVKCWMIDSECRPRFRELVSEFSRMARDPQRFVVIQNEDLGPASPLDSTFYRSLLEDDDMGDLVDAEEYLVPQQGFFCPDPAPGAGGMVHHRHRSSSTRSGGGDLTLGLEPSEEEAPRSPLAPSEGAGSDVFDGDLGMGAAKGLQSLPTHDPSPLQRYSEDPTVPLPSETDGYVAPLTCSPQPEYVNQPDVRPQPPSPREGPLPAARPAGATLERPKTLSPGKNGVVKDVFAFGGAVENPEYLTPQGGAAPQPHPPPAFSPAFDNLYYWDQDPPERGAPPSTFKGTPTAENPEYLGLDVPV
RAF proto-oncogene serine/threonine-protein kinase (Homo sapiens), sequence (P04049 whole entry): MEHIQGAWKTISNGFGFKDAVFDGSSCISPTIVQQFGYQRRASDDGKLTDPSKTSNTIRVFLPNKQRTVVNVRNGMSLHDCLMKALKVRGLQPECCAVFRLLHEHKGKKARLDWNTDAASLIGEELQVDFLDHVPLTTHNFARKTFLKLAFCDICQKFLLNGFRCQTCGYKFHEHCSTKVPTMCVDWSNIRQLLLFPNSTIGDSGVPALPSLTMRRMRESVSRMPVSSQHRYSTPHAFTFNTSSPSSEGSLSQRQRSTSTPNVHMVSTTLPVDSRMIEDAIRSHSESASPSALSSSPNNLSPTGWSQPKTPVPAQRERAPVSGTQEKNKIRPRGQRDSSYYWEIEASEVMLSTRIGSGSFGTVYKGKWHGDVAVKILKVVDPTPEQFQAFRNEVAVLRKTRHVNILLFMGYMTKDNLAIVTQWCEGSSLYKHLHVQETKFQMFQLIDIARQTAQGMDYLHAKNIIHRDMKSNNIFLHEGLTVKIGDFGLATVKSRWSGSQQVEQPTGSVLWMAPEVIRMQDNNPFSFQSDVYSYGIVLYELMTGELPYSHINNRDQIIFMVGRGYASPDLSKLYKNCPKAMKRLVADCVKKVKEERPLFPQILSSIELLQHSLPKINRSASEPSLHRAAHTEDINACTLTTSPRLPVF

Structure (SMILES)	pIC50 [1]	pIC50 [2]	pIC50 [3]	Activity [5]	Activity (Homo sapiens [6])	Activity [7]	Activity [8]	Activity [9]	Activity [10]	Activity [11]	Activity [12]	Activity (Homo sapiens [13])	Activity [14]	Activity [15]	Activity (Homo sapiens [16])	Activity (Homo sapiens [17])	Activity [18]	Activity [19]	Papp [20]	Activity (Caco-2)	also measured
O=C(Nc1ccc(Cl)cc1)c1ccnn1CCc1ccncc1	7.01	7.11	7.05	> 30%	> 30%	> 30%	> 30%	> 30%	< 30%	> 30%	> 30%	> 30%	> 30%	> 30%	> 30%	> 30%	> 30%	> 30%	6.95 ×10⁻⁶ cm/s	Active	pKi [2]: 6.96; pKi [4]: 7.05
O=C(Nc1ccc(OC(F)(F)F)cc1)c1ccnn1CCc1ccncc1	6.72	7.55	7.74	> 30%	> 30%	> 30%	> 30%	> 30%	< 30%	> 30%	> 30%	> 30%	> 30%	> 30%	> 30%	> 30%	> 30%	> 30%	7.03 ×10⁻⁶ cm/s	Active	pKi [2]: 7.05; pKi [4]: 7.10
COc1ccc(NC(=O)c2ccnn2CCc2ccncc2)cc1OC	5.91	6.36	7.05	> 30%	> 30%	> 30%	> 30%	> 30%	< 30%	> 30%	> 30%	> 30%	> 30%	> 30%	> 30%	> 30%	> 30%	> 30%	–	–	Activity (HEK293): Active; GI50 (A-431): 50 nM; GI50 (DLD-1): 125 nM; GI50 (DU-145): 220 nM
O=C(Nc1ccc(C(F)(F)F)cc1)c1ccnn1CCc1ccncc1	6.42	7.16	7.32	> 30%	> 30%	> 30%	> 30%	> 30%	< 30%	> 30%	> 30%	> 30%	> 30%	> 30%	> 30%	> 30%	> 30%	> 30%	6.42 ×10⁻⁶ cm/s	Active	–
O=C(Nc1cccc(OC(F)(F)Cl)c1)c1ccnn1CCc1ccncc1	6.49	–	7.68	> 30%	> 30%	> 30%	> 30%	> 30%	< 30%	> 30%	> 30%	> 30%	> 30%	> 30%	> 30%	> 30%	> 30%	> 30%	4.73 ×10⁻⁶ cm/s	Active	pKi [2]: 7.15; pKi [4]: 7.05
CC(C)c1ccc(NC(=O)c2ccnn2CCc2ccncc2)cc1	6.36	7.13	7.28	> 30%	> 30%	> 30%	> 30%	> 30%	< 30%	> 30%	> 30%	> 30%	> 30%	> 30%	> 30%	> 30%	> 30%	> 30%	8.18 ×10⁻⁶ cm/s	Active	–

More lines, in order of rising pIC50 [1], values ahead:

pIC50 [1]	pIC50 [2]	pIC50 [3]	Activity [5]	Activity (Homo sapiens [6])	Activity [7]	Activity [8]	Activity [9]	Activity [10]	Activity [11]	Activity [12]	Activity (Homo sapiens [13])	Activity [14]	Activity [15]	Activity (Homo sapiens [16])	Activity (Homo sapiens [17])	Activity [18]	Activity [19]	Papp [20]	Activity (Caco-2)	Structure (SMILES)	also measured
6.01	6.74	7.02	> 30%	> 30%	> 30%	> 30%	> 30%	< 30%	> 30%	> 30%	> 30%	> 30%	> 30%	> 30%	> 30%	> 30%	> 30%	4.6 ×10⁻⁶ cm/s	Active	O=C(Nc1ccc(C(F)(F)F)c(Cl)c1)c1ccnn1CCc1ccncc1	pKi [2]: 6.77; pKi [4]: 6.80
6.23	7.38	7.48	> 30%	> 30%	> 30%	> 30%	> 30%	< 30%	> 30%	> 30%	> 30%	> 30%	> 30%	> 30%	> 30%	> 30%	> 30%	7.43 ×10⁻⁶ cm/s	Active	CC(C)(C)c1ccc(NC(=O)c2ccnn2CCc2ccncc2)cc1	pKi [2]: 6.89; pKi [4]: 6.85

— ChEMBL document CHEMBL1148870, “Novel inhibitors of VEGF receptors-1 and -2 based on azole-5-carboxamide templates” (Bioorg Med Chem Lett, 2007)
